Source: the supplement of paper PMC10307832

Assays:
Assay in all cases: relative viability (nuclei count vs DMSO), 5 days (fraction); higher = more cells survive
[1] = compound: C1=CC2=NC=CN=C2C=C1/C=C/3\C(=O)NC(=O)S3 + NC(=O)Nc1cc(-c2cccc(F)c2)sc1C(=O)N[C@H]1CCCNC1 [AZD7762] (partner 0.2 µM)
Outline: (§1)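 Relative viability is defined as nuclei in treated wells over nuclei in vehicle wells. Duplicate plates were run and medians reported. Lung cancer cell lines in 1536-well plates were dosed by pin tool one day after seeding, with one drug or with a fixed anchor-drug dose plus five library-drug doses (not always all listed) in √10 steps, and nuclei were counted after 5 days.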

[2] = compound: C1=CC2=NC=CN=C2C=C1/C=C/3\C(=O)NC(=O)S3 + Cc1cc(Nc2cc(N3CCN(C)CC3)nc(Sc3ccc(NC(=O)C4CC4)cc3)n2)n[nH]1 [Tozasertib] (partner 0.1 µM)
Outline: as §1

[3] = compound: C1=CC2=NC=CN=C2C=C1/C=C/3\C(=O)NC(=O)S3 + Nc1nc2[nH]cc(CCc3ccc(C(=O)N[C@@H](CCC(=O)O)C(=O)O)cc3)c2c(=O)[nH]1 [Pemetrexed] (partner 0.2 µM)
Outline: as §1

BGJ398 + Phenformin = compound: CCN1CCN(c2ccc(Nc3cc(N(C)C(=O)Nc4c(Cl)c(OC)cc(OC)c4Cl)ncn3)cc2)CC1 [BGJ398] + N=C(N)NC(=N)NCCc1ccccc1 [Phenformin] (partner 250 µM)
Outline: as §1

| Cell Line | relative viability ([1]; first compound 0.02 µM) | relative viability ([1]; first compound 0.06325 µM) | relative viability ([1]; first compound 0.2 µM) | relative viability ([1]; first compound 0.6325 µM) | relative viability ([1]; first compound 2 µM) | relative viability ([2]; first compound 0.02 µM) | relative viability ([2]; first compound 0.06325 µM) | relative viability ([2]; first compound 0.2 µM) | relative viability ([2]; first compound 0.6325 µM) | relative viability ([2]; first compound 2 µM) | relative viability ([3]; first compound 0.02 µM) | relative viability ([3]; first compound 0.06325 µM) | relative viability ([3]; first compound 0.2 µM) | relative viability ([3]; first compound 0.6325 µM) | relative viability ([3]; first compound 2 µM) | relative viability (BGJ398 + Phenformin; first compound 0.01 µM) | relative viability (BGJ398 + Phenformin; first compound 0.1 µM) | relative viability (BGJ398 + Phenformin; first compound 0.3162 µM) | relative viability (BGJ398 + Phenformin; first compound 1 µM) | relative viability (BGJ398 + Phenformin; first compound 0.03162 µM) |
| --- | --- | --- | --- | --- | --- | --- | --- | --- | --- | --- | --- | --- | --- | --- | --- | --- | --- | --- | --- | --- |
| HCC-827 | 0.218 | 0.155 | 0.261 | 0.265 | 0.114 | 0.403 | 0.446 | 0.417 | 0.38 | 0.472 | 0.246 | 0.265 | 0.266 | 0.268 | 0.274 | 0.323 | 0.432 | 0.317 | 0.413 | – |
| HOP-62 | 0.847 | 0.91 | 0.516 | 0.434 | 0.685 | 0.352 | 0.354 | 0.34 | 0.328 | 0.363 | 0.319 | 0.368 | 0.299 | 0.355 | 0.307 | 0.649 | 0.737 | 0.604 | 0.773 | 0.704 |
| LC-2-ad | 0.768 | 0.817 | 0.848 | 0.798 | 0.619 | 0.444 | 0.353 | 0.46 | 0.406 | 0.449 | 0.292 | 0.286 | 0.276 | 0.283 | 0.279 | 0.58 | 0.655 | 0.573 | 0.503 | 0.604 |
| LCLC-97TM1 | 0.21 | 0.219 | 0.253 | 0.269 | 0.113 | 0.201 | 0.224 | 0.194 | 0.211 | 0.145 | 0.138 | 0.199 | 0.187 | 0.152 | 0.152 | 0.393 | 0.442 | 0.429 | 0.44 | 0.446 |
| LCLC-103H | 0.658 | 0.886 | 0.828 | 0.749 | 0.629 | 0.563 | 0.424 | 0.45 | 0.52 | 0.456 | 0.464 | 0.438 | 0.473 | 0.448 | 0.447 | 0.317 | 0.336 | 0.284 | 0.277 | 0.331 |
| LK-2 | 0.43 | 0.538 | 0.466 | 0.4 | 0.14 | 0.174 | 0.189 | 0.159 | 0.191 | 0.165 | 0.198 | 0.326 | 0.276 | 0.267 | 0.148 | 0.268 | 0.255 | 0.18 | 0.271 | 0.295 |
| NCI-H520 | – | – | – | – | – | 0.394 | 0.378 | 0.451 | 0.416 | 0.458 | 0.684 | 0.726 | 0.71 | 0.783 | 0.711 | 0.532 | 0.379 | 0.189 | 0.242 | 0.481 |
| NCI-H661 | – | – | – | – | – | 0.389 | 0.368 | 0.352 | 0.335 | 0.374 | 0.94 | 1 | 0.982 | 0.845 | 0.905 | 0.286 | 0.295 | 0.302 | 0.291 | 0.316 |
| NCI-H727 | 0.597 | 0.63 | 0.737 | 0.678 | 0.337 | 0.676 | 0.703 | 0.736 | 0.569 | 0.545 | – | – | – | – | – | 0.668 | 0.635 | 0.568 | 0.516 | 0.521 |
